Results from patent US6335451B1, “Five-membered heterocycles having biphenylsulfonyl substitution, with sulfonylcyanamide side chain, compositions containing them, and methods of using them” (Hoechst Aktiengesellschaft, priority 1997, dated 2002).

Legend:
[1] = test system: Na+-dependent Cl−/HCO3− exchanger (NCBE); experiment: Inhibition of the Na+-dependent Cl−/HCO3− exchanger (NCBE) in human endothelial cells (pHi recovery, BCECF fluorescence, FLIPR); assay type: cell-based; conditions: inhibitor concentration of 10 μM; human endothelial cells (ECV-304); relative to 100% and 0% pHi recovery controls, 50 μM HOE 642 present
Experimental: Inhibition of the Na^+-dependent Cl^−/HCO3^− exchanger (NCBE) in human endothelial cells
Human endothelial cells (ECV-304) were detached from culture bottles with the aid of trypsin/EDTA buffer (0.05/0.02% in phosphate buffer) and, after centrifugation (100 g, 5 min), taken up in a buffered salt solution (mmol/l: 115 NaCl, 20 NH4Cl, 5 KCl, 1 CaCl2, 1 MgSO4, 20 N-(2-hydroxyethyl)piperazine-N′-2-ethanesulfonic acid (HEPES), 5 glucose and 1 g/l of bovine serum albumin; pH 7.4). This cell suspension was incubated at 37° C. for 20 min with 5 μM BCECF-acetoxymethyl ester. The cells were then washed and resuspended in a sodium- and bicarbonate-free buffer solution (mmol/l: 5 HEPES, 133.8 choline chloride, 4.7 KCl, 1.25 MgCl2, 0.97 K2HPO4, 0.23 KH2PO4, 5 glucose; pH 7.4).
For subsequent fluorescence measurement in an FLIPR (Fluorescent Imaging Plate Reader) 100 μl of this cell suspension having 20,000 cells in each case were pipetted per well into a 96-well microtiter plate and this microtiter plate was centrifuged (100 g, 5 min).
In the FLIPR, 100 μl of buffer solution in each case were then removed from a further pretreated microtiter plate and pipetted into each of the 96 wells of the measurement plate. A bicarbonate- and sodium-containing buffer solution (mmol/l: 5 HEPES, 93.8 NaCl, 40 NaHCO3, 4.7 KCl, 1.25 CaCl2, 1.25 MgCl2, 0.97 Na2HPO4, 0.23 NaH2PO4, 5 glucose; pH 7.4) which contained 50 μM HOE 642 was used for a 100% control, i.e. a recovery of the intracellular pH (pHi) via the NCBE. For a 0% control, i.e. no pHi recovery at all, the bicarbonate-free, sodium-containing buffer solution (mmol/l: 5 HEPES, 133.8 NaCl, 4.7 KCl, 1.25 CaCl2, 1.25 MgCl2, 0.97 Na2HPO4, 0.23 NaH2PO4, 5 glucose; pH 7.4) was employed, to which 50 μM HOE 642 were likewise added. The compounds according to the invention were added to the sodium- and bicarbonate-containing solution in various concentrations.
After addition of the buffer solutions to the dye-loaded, acidified cells in the measurement plate, the rise in the fluorescence intensity which corresponded to a rise in the pHi in each well of the microtiter plate was determined. The kinetics were in this case recorded at 35° C. for a period of 2 minutes.
The increase in the fluorescence intensities for different concentrations of the compounds according to the invention was related to the two controls and from this inhibitory action of the substances was determined.
Residual Activity of the NCBE at an Inhibitor Concentration of 10 μM

| Compound | Residual activity in % (residual activity of the NCBE) [1] [%] | melting point |
| --- | --- | --- |
| N#CNS(=O)(=O)c1ccccc1-c1ccc(Cn2c(-c3ccccc3)nc(Cl)c2C=O)c(F)c1 [Example 33, 3′-Fluoro-4′-(4-chloro-5-formyl-2-phenyl-imidazole-1-ylmethyl)biphenyl-2-sulfonylcyanamide] | 7.6 | – |
| CCCCc1nc(SC)c(C(=O)OCC)n1Cc1ccccc1-c1ccc(S(=O)(=O)NC#N)cc1 [Example 9, Ethyl 2-butyl-5-methylsulfanyl-3-(4′-cyanoaminosulfonyl-biphenyl-2-ylmethyl)-3H-imidazole-4-carboxylate] | 31.6 | 116 °C (dec.) |
| CCCCc1nc(SC)c(C(=O)OC(C)C)n1Cc1ccc(-c2ccccc2S(=O)(=O)NC#N)cc1 [Example 20, Isopropyl 2-butyl-5-methylsulfanyl-3-(2′-cyanoaminosulfonylbiphenyl-4-ylmethyl)-3H-imidazole-4-carboxylate] | 19.5 | 113 °C (dec.) |
| CCCCc1nc(SC)cn1Cc1ccc(-c2ccccc2S(=O)(=O)NC#N)cc1 [Example 27, 4′-(2-Butyl-4-methylsulfanylimidazol-1-ylmethyl)biphenyl-2-sulfonylcyanamide] | 50.0 | – |
| N#CNS(=O)(=O)c1ccccc1-c1ccc(Cn2c(-c3ccccc3)nc(Cl)c2C=O)cc1 [Example 11, 4′-(4-Chloro-5-formyl-2-phenylimidazol-1-ylmethyl)biphenyl-2-sulfonylcyanamide] | 15.0 | – |
| N#CNS(=O)(=O)c1ccccc1-c1ccc(Cn2c(-c3c(F)cccc3F)nc(Cl)c2C=O)cc1 [Example 38, 4′-[4-Chloro-5-formyl-2-(2,6-difluorphenyl)-imidazole-1-ylmethyl]-biphenyl-2-sulfonylcyanamide] | 8.6 | 164 to 178 °C |
| CCCCc1nc(OC)c(C#N)n1Cc1ccc(-c2ccccc2S(=O)(=O)NC#N)cc1 [Example 14, 4′-(2-Butyl-5-cyano-4-methoxyimidazol-1-ylmethyl)biphenyl-2-sulfonylcyanamide] | 47.3 | 160 °C (dec.) |
| N#CNS(=O)(=O)c1ccccc1-c1ccc(Cn2c(-c3ccccc3)nc(Cl)c2C=O)c(Cl)c1 [Example 32, 3′-Chloro-4′-(4-chloro-5-formyl-2-phenylimidazol-1-ylmethyl)biphenyl-2-sulfonylcyanamide] | 7.8 | – |
| CCCCc1nc(SC)c(C(=O)OCC)n1Cc1ccc(-c2ccc(S(=O)(=O)NC#N)cc2)cc1 [Example 3, Ethyl 2-butyl-5-methylsulfanyl-3-(4′-cyanoaminosulfonylbiphenyl-4-ylmethyl)-3H-imidazole-4-carboxylate] | 74.1 | 244 °C (dec.) |
| CCOC(=O)c1c(SC)nc(C2CC2)n1Cc1ccc(-c2ccccc2S(=O)(=O)NC#N)cc1 [Example 10, Ethyl 2-cyclopropyl-5-methylsulfanyl-3-(2′-cyanoaminosulfonylbiphenyl-4-ylmethyl)-3H-imidazole-4-carboxylate] | 21.6 | > 260 °C |
| CCOC(=O)c1c(SC)nc(C)n1Cc1ccc(-c2ccccc2S(=O)(=O)NC#N)cc1 [Example 18, Ethyl 2-methyl-5-methylsulfanyl-3-(2′-cyanoaminosulfonylbiphenyl-4-ylmethyl)-3H-imidazole-4-carboxylate] | 45.8 | 169 °C (dec.) |
| CCCCc1nc(SC)c(C(=O)OCC)n1Cc1cccc(-c2ccc(S(=O)(=O)NC#N)cc2)c1 [Example 6, Ethyl 2-butyl-5-methylsulfanyl-3-(4′-cyanoaminosulfonyl-biphenyl-3-ylmethyl)-3H-imidazole-4-carboxylate] | 58.6 | 120 °C (dec.) |
| CCCCc1nc(SC)c(C(=O)OCC)n1Cc1ccc(-c2cccc(S(=O)(=O)NC#N)c2)cc1 [Example 2, Ethyl 2-butyl-5-methylsulfanyl-3-(3′-cyanoaminosulfonylbiphenyl-4-ylmethyl)-3H-imidazole-4-carboxylate] | 39.6 | – |
| CCCCc1nc(SC)c(C(=O)OCC)n1Cc1cccc(-c2ccc(S(=O)(=O)NC#N)cc2C(F)(F)F)c1 [Example 26, Ethyl 2-butyl-5-methylsulfanyl-3-(4′-cyanoaminosulfonyl-2′-trifluoromethylbiphenyl-3-ylmethyl)-3H-imidazole-4-carboxylate] | 65.3 | 122 °C (dec.) |
| CC(=O)c1c(Cl)nc(-c2ccccc2)n1Cc1ccc(-c2ccccc2S(=O)(=O)NC#N)cc1 [Example 29, 4′-(5-Acetyl-4-chloro-2-phenylimidazol-1-ylmethyl)biphenyl-2-sulfonylcyanamide] | 39.6 | – |
| CCCCc1nc(SC)c(C(=O)OCC)n1Cc1ccc(-c2ccc(S(=O)(=O)NC#N)cc2C(F)(F)F)cc1 [Example 23, Ethyl 2-butyl-5-methylsulfanyl-3-(4′-cyanoaminosulfonyl-2′-trifluoromethylbiphenyl-4-ylmethyl)-3H-imidazole-4-carboxylate] | 31.6 | – |
| CCCCc1nc(SC)c(C(=O)OCC)n1Cc1ccc(-c2ccc(S(=O)(=O)NC#N)cc2C)cc1 [Example 22, Ethyl 2-butyl-3-(2′-methyl-4′-cyanoaminosulfonylbiphenyl-4-yl-methyl)-5-methylsulfanyl-3H-imidazole-4-carboxylate] | 34.2 | 211 °C |
| CCOC(=O)c1c(SC)nc(C(C)C)n1Cc1ccc(-c2ccccc2S(=O)(=O)NC#N)cc1 [Example 19, Ethyl 2-isopropyl-5-methylsulfanyl-3-(2′-cyanoaminosulfonylbiphenyl-4-ylmethyl)-3H-imidazole-4-carboxylate] | 21.5 | 276 °C (dec.) |
| CCCCc1nc(SC)c(C(=O)OCC)n1Cc1cccc(-c2cc(S(=O)(=O)NC#N)ccc2C)c1 [Example 24, Ethyl 2-butyl-3-(2′-methyl-5′-cyanoaminosulfonylbiphenyl-3-yl-methyl)-5-methylsulfanyl-3H-imidazole-4-carboxylate] | 29.2 | 160 °C (dec.) |
| N#CNS(=O)(=O)c1ccccc1-c1ccc(Cn2c(-c3ccccc3)nc(-c3ccccc3)c2-c2ccccc2)cc1 [Example 31, 4′-(2,4,5-Triphenylimidazol-1-ylmethyl)biphenyl-2-sulfonylcyanamide] | 36.5 | – |
| COc1nc(-c2ccccc2)n(Cc2ccc(-c3ccccc3S(=O)(=O)NC#N)cc2)c1C=O [Example 12, 4′-(4-Methoxy-5-formyl-2-phenylimidazol-1-ylmethyl)biphenyl-2-sulfonylcyanamide] | 20.8 | – |
| N#CNS(=O)(=O)c1ccccc1-c1ccc(Cn2c(-c3ccccc3)nc(Oc3ccccc3)c2C=O)c(Cl)c1 [Example 35, 3′-Chloro-4′-(4-phenoxy-5-formyl-2-phenyl-imidazole-1-ylmethyl)biphenyl-2-sulfonylcyanamide] | 3.2 | – |
| N#CNS(=O)(=O)c1ccccc1-c1ccc(Cn2cc(Cl)nc2-c2ccccc2)cc1 [Example 28, 4′-(4-Chloro-2-phenylimidazol-1-ylmethyl)biphenyl-2-sulfonylcyanamide] | 30.5 | – |
| COc1nc(-c2ccccc2)n(Cc2ccc(-c3ccccc3S(=O)(=O)NC#N)cc2)c1C(C)=O [Example 30, 4′-(5-Acetyl-4-methoxy-2-phenylimidazol-1-ylmethyl)biphenyl-2-sulfonylcyanamide] | 48.8 | – |
| COc1nc(-c2ccccc2)n(Cc2ccc(-c3ccccc3S(=O)(=O)NC#N)cc2Cl)c1C=O [Example 34, 3′-Chloro-4′-(4-methoxy-5-formyl-2-phenyl-imidazole-1-ylmethyl)biphenyl-2-sulfonylcyanamide] | 5.5 | – |
